Where a SMILES comes first, the peptide text is derived from it. [ ]: non-standard residue; d: D form. Nle = CCCC[C@H](N)C(=O)O

The test system of the first assay is HIV-1 IIIB. As to the kind of experiment: Antiviral cytotoxicity (MTT) assay with MT4 cells, HIV-1 IIIB. In kind it is cell-based. The settings on record: MT-4 cells, 5 days, average of 2 or 3 experiments.
By IC50 is commonly meant the concentration at which inhibition is half-maximal. Low values mean greater potency in that assay, high ones weaker potency in that assay. `CCCC[C@H](NC(=O)[C@H](Cc1c[nH]c2ccccc12)NC(C)=O)C(=O)N[C@@H](CCC(=O)O)C(=O)N[C@@H](Cc1c[nH]c2ccccc12)C(=O)N[C@@H](CC(=O)O)C(=O)N[C@@H](CCCNC(=N)N)C(=O)N[C@@H](CCCCN)C(=O)N[C@H](C(=O)N[C@@H](CCC(=O)O)C(=O)N[C@@H](CCC(=O)O)C(=O)N[C@@H](Cc1ccc(O)cc1)C(=O)N[C@H](C(=O)N[C@@H](CCCCN)C(=O)N[C@@H](CCCCN)C(=O)N[C@H](C(=O)N[C@@H](CCC(=O)O)C(=O)N[C@@H](CCC(=O)O)C(=O)N[C@@H](CC(C)C)C(=O)N[C@H](C(=O)N[C@@H](CCCCN)C(=O)N[C@@H](CCCCN)C(=O)N[C@@H](C)C(=O)N[C@@H](CCC(N)=O)C(=O)N[C@@H](CCC(=O)O)C(=O)N[C@@H](CCC(N)=O)C(=O)N[C@@H](CCC(N)=O)C(=O)N[C@@H](CCC(=O)O)C(=O)N[C@@H](CCCCN)C(=O)N[C@@H](CC(N)=O)C(=O)N[C@@H](CCC(=O)O)C(=O)N[C@@H](CCCCN)C(=O)N[C@@H](CCC(=O)O)C(=O)N[C@@H](CC(C)C)C(=O)N[C@@H](CCCCN)C(N)=O)[C@@H](C)CC)[C@@H](C)CC)[C@@H](C)O)[C@@H](C)CC` [peptide 11, Ac-WXEWDRKIEEYTKKIEELIKKAQEQQEKNEKELK-NH2] (Ac-W[Nle]EWDRKIEEYTKKIEELIKKAQEQQEKNEKELK-NH2) displayed an IC50 of 2.1 nM.
The same measure, in the same setting: the figure for `CCCC[C@H](NC(=O)[C@H](Cc1c[nH]c2ccccc12)NC(C)=O)C(=O)N[C@@H](CCC(=O)O)C(=O)N[C@@H](Cc1c[nH]c2ccccc12)C(=O)N[C@@H](CC(=O)O)C(=O)N[C@@H](CCCNC(=N)N)C(=O)N[C@@H](CCC(=O)O)C(=O)N[C@@H](Cc1c[nH]c2ccccc12)C(=O)N[C@@H](CC(N)=O)C(=O)N[C@@H](CC(N)=O)C(=O)N[C@@H](Cc1ccc(O)cc1)C(=O)N[C@H](C(=O)N[C@@H](CO)C(=O)N[C@@H](CC(C)C)C(=O)N[C@H](C(=O)N[C@@H](Cc1c[nH]cn1)C(=O)N[C@@H](CO)C(=O)N[C@@H](CC(C)C)C(=O)N[C@H](C(=O)N[C@@H](CCC(=O)O)C(=O)N[C@@H](CCC(=O)O)C(=O)N[C@@H](CO)C(=O)N[C@@H](CCC(N)=O)C(=O)N[C@@H](CC(N)=O)C(=O)N[C@@H](CCC(N)=O)C(=O)N[C@@H](CCC(N)=O)C(=O)N[C@@H](CCC(=O)O)C(=O)N[C@@H](CCCCN)C(=O)N[C@@H](CC(N)=O)C(=O)N[C@@H](CCC(=O)O)C(=O)N[C@@H](CCC(N)=O)C(=O)N[C@@H](CCC(=O)O)C(=O)N[C@@H](CC(C)C)C(=O)N[C@@H](CC(C)C)C(N)=O)[C@@H](C)CC)[C@@H](C)CC)[C@@H](C)O` [peptide 3, Ac-WXEWDREWNNYTSLIHSLIEESQNQQEKNEQELL-NH2] (Ac-W[Nle]EWDREWNNYTSLIHSLIEESQNQQEKNEQELL-NH2) is 1.7 nM.

The next assay concerns HIV NL4-3. Kind of assay: Antiviral cytotoxicity (MTT) assay with MT4 cells, HIV NL4-3. The settings on record: MT-4 cells, 5 days, average of 2 or 3 experiments. In kind it is cell-based, HIV-1. How it is done: Antiviral potency of the peptides was analyzed against HIV-1 HXB2 or NLA-3 strains using a cytotoxicity assay with MT4 cells as previously described (ref 1-3) with minor modifications. MT-4 cells (1.5×10^4/ml) were exposed to 200 50% tissue culture infective doses (TCID50) of viruses in the presence of various concentrations of test compound in 96 well microtiter plates and incubated at 37° C. for 5 days. Cytotoxicity of HIV was measured by the addition of 3-(4,5-dimethylthiazol-2-yl)-2,5-diphenytetrazolium bromide (MMI) solution to each well to a final concentration of 0.75 mg/ml, and incubation for 1 hour a 37° C. After incubation, cells were dissolved in isopropanoyrriton-X 100/HCl (1000:50:25) solution. Absorbance was monitored in a microplate reader (Spectramax, Molecular Devices) at 540 rm and 690 nm. MT-4 cells were obtained from the AIDS Research and Reference Reagent Program (ARRRP, Division of AIDS, NIAID, NIH: MT-4 from Dr. D. Richman). Cells were propagated in RPMI 1640 growth medium supplemented with 10% fetal bovine serum, 50U of penicillin and 50 μg of streptomycin per ml ([Ivitrogen, Carlsbad Calif.).
As to `CCCC[C@H](NC(=O)[C@H](Cc1c[nH]c2ccccc12)NC(C)=O)C(=O)N[C@@H](CCC(=O)O)C(=O)N[C@@H](Cc1c[nH]c2ccccc12)C(=O)N[C@@H](CC(=O)O)C(=O)N[C@@H](CCCNC(=N)N)C(=O)N[C@@H](CCCCN)C(=O)N[C@H](C(=O)N[C@@H](CCC(=O)O)C(=O)N[C@@H](CCC(=O)O)C(=O)N[C@@H](Cc1ccc(O)cc1)C(=O)N[C@H](C(=O)N[C@@H](CCCCN)C(=O)N[C@@H](CCCCN)C(=O)N[C@H](C(=O)N[C@@H](CCC(=O)O)C(=O)N[C@@H](CCC(=O)O)C(=O)N[C@@H](CC(C)C)C(=O)N[C@H](C(=O)N[C@@H](CCCCN)C(=O)N[C@@H](CCCCN)C(=O)N[C@@H](C)C(=O)N[C@@H](CCC(N)=O)C(=O)N[C@@H](CCC(=O)O)C(=O)N[C@@H](CCC(N)=O)C(=O)N[C@@H](CCC(N)=O)C(=O)N[C@@H](CCC(=O)O)C(=O)N[C@@H](CCCCN)C(=O)N[C@@H](CC(N)=O)C(=O)N[C@@H](CCC(=O)O)C(=O)N[C@@H](CCCCN)C(=O)N[C@@H](CCC(=O)O)C(=O)N[C@@H](CC(C)C)C(=O)N[C@@H](CCCCN)C(N)=O)[C@@H](C)CC)[C@@H](C)CC)[C@@H](C)O)[C@@H](C)CC` [peptide 11, Ac-WXEWDRKIEEYTKKIEELIKKAQEQQEKNEKELK-NH2] (Ac-W[Nle]EWDRKIEEYTKKIEELIKKAQEQQEKNEKELK-NH2), the IC50 stood at 1.1 nM.
The compound `CCCC[C@H](NC(=O)[C@H](Cc1c[nH]c2ccccc12)NC(C)=O)C(=O)N[C@@H](CCC(=O)O)C(=O)N[C@@H](Cc1c[nH]c2ccccc12)C(=O)N[C@@H](CC(=O)O)C(=O)N[C@@H](CCCNC(=N)N)C(=O)N[C@@H](CCC(=O)O)C(=O)N[C@@H](Cc1c[nH]c2ccccc12)C(=O)N[C@@H](CC(N)=O)C(=O)N[C@@H](CC(N)=O)C(=O)N[C@@H](Cc1ccc(O)cc1)C(=O)N[C@H](C(=O)N[C@@H](CO)C(=O)N[C@@H](CC(C)C)C(=O)N[C@H](C(=O)N[C@@H](Cc1c[nH]cn1)C(=O)N[C@@H](CO)C(=O)N[C@@H](CC(C)C)C(=O)N[C@H](C(=O)N[C@@H](CCC(=O)O)C(=O)N[C@@H](CCC(=O)O)C(=O)N[C@@H](CO)C(=O)N[C@@H](CCC(N)=O)C(=O)N[C@@H](CC(N)=O)C(=O)N[C@@H](CCC(N)=O)C(=O)N[C@@H](CCC(N)=O)C(=O)N[C@@H](CCC(=O)O)C(=O)N[C@@H](CCCCN)C(=O)N[C@@H](CC(N)=O)C(=O)N[C@@H](CCC(=O)O)C(=O)N[C@@H](CCC(N)=O)C(=O)N[C@@H](CCC(=O)O)C(=O)N[C@@H](CC(C)C)C(=O)N[C@@H](CC(C)C)C(N)=O)[C@@H](C)CC)[C@@H](C)CC)[C@@H](C)O` [peptide 3, Ac-WXEWDREWNNYTSLIHSLIEESQNQQEKNEQELL-NH2] (Ac-W[Nle]EWDREWNNYTSLIHSLIEESQNQQEKNEQELL-NH2) had an IC50 of 7.6 nM.

In a further assay the target is T1, Human plasma renin (Homo sapiens, UniProt P00797).
T1 construct: plasma renin
T1 sequence (P00797 67-406): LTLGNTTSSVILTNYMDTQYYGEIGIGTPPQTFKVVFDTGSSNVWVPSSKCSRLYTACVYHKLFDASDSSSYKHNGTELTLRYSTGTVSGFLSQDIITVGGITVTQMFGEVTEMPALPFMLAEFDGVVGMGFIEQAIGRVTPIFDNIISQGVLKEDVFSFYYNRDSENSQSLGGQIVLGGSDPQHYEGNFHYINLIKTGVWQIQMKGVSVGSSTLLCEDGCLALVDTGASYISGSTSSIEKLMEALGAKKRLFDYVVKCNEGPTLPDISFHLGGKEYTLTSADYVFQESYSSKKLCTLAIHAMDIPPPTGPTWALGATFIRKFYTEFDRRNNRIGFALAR
Test: not given
The settings on record: cell marked (Ki); cited from earlier work.
By Ki is commonly meant a measure of affinity in units of concentration, obtained from inhibition or displacement. As for Iva-His-Pro-Phe-His-Sta---Ala-Sta, the Ki was 1.9 nM.

Values taken from US20070207952A1, “Long Acting Biologically Active Conjugates” (priority 2003, published 2007).
